Data published in patent publication US20200281202A1 (priority 2017, published 2020).

Columns and labels:
Plasmopara viticola = Plasmopara viticola test in grape, preventive; type: in vivo; settings: Plasmopara viticola, 50 ppm spray, grape seedlings inoculated one day after treatment, read-out: control (disease severity) compared to the untreated check
Protocol: Example B: Plasmopara viticola Test in Grape
Compounds were dissolved in 2% DMSO/Acetone & then mixed with water to calibrated spray volume of 50 ml. This 50 ml spray solution was poured into the spray bottles for further applications.
To test the preventive activity of compounds, five week old healthy grape seedlings raised in the greenhouse were sprayed with active compound preparation at the stated application rates inside the spray cabinets using hallow-cone nozzles. One day after treatment, the plants were inoculated with inoculum suspension (Cold sterile water) containing 6×10^6 Plasmopara viticola inoculum. The inoculated plants were then kept in greenhouse chamber at 18-21° C. temperature and 95-100% relative humidity for disease expression. Compounds
A visual assessment of compound's performance was carried by rating the disease severity (0-100% scale) on treated plants on 3, 7, 10 and 15 days after application. Efficacy (% control) of the compounds was calculated by comparing the disease rating in the treatment with untreated control. The sprayed plants were also assessed for compound's phytotoxic effects by recording symptoms like necrosis, chlorosis and stunting.

Phytophthora infestans [1] = test: microbe, parasite or virus in culture; type: cell-based; settings: Phytophthora infestans, 168 h, read-out: control (radial growth) compared to the untreated check
Phytophthora infestans [2] = test: whole plant or invertebrate; type: in vivo; settings: Phytophthora infestans, in Solanum lycopersicum, read-out: control (disease severity) compared to the untreated check

Structure (SMILES) | pest or weed control at 50 ppm (Plasmopara viticola) | inhibition of growth at 30 ppm (Phytophthora infestans [1]) | pest or weed control at 50 ppm (Phytophthora infestans [2])
O=C(COc1ncc(Cl)cc1C(F)(F)F)N1CCC(c2nc(C3=NOC(c4c(F)cccc4F)C3)cs2)CC1 (stereo not drawn) [Compound 33] | 90% | 70% | 90%
O=C(COc1ncc(Br)cc1C(F)(F)F)N1CCC(c2nc(C3=NOC(c4c(F)cccc4F)C3)cs2)CC1 (stereo not drawn) [Compound 37, 2-((5-bromo-3-(trifluoromethyl)pyridin-2-yl)oxy)-1-(4-(4-(5-(2,6-difluorophenyl)-4,5-dihydroisoxazol-3-yl)thiazol-2-yl)piperidin-1-yl)ethan-1-one] | 90% | 70% | 90%
Cc1cccnc1OCC(=O)N1CCC(c2nc(C3=NOC(c4c(Cl)cc(Cl)cc4Cl)C3)cs2)CC1 (stereo not drawn) [Compound 79] | 90% | 70% | 90%
CS(=O)(=O)Oc1cccc(Cl)c1C1CC(c2csc(C3CCN(C(=O)COc4ncc(Cl)cc4C(F)(F)F)CC3)n2)=NO1 (stereo not drawn) [Compound 32, 3-chloro-2-(3-(2-(1-(2-((5-chloro-3-(trifluoromethyl)pyridin-2-yl)oxy)acetyl)piperidin-4-yl)thiazol-4-yl)-4,5-dihydroisoxazol-5-yl)phenyl methanesulfonate] | 90% | 70% | 90%
O=C(COc1ncccc1C(F)(F)F)N1CCC(c2nc(C3=NOC(c4ccccc4F)C3)cs2)CC1 (stereo not drawn) [Compound 66, 1-(4-(4-(5-(2-fluorophenyl)-4,5-dihydroisoxazol-3-yl)thiazol-2-yl)piperidin-1-yl)-2-((3-(trifluoromethyl)pyridin-2-yl)oxy)ethan-1-one] | 90% | 70% | 90%
O=C(COc1ncc(Cl)cc1C(F)(F)F)N1CCC(c2nc(C3=NOC(c4c(Cl)cc(Cl)cc4Cl)C3)cs2)CC1 (stereo not drawn) [Compound 34] | 90% | 70% | 90%
Cc1cccnc1OCC(=O)N1CCC(c2nc(C3=NOC(c4c(Cl)cccc4Cl)C3)cs2)CC1 (stereo not drawn) [Compound 76, 1-(4-(4-(5-(2,6-dichlorophenyl)-4,5-dihydroisoxazol-3-yl)thiazol-2-yl)piperidin-1-yl)-2-((3-methylpyridin-2-yl)oxy)ethan-1-one] | 90% | 70% | 90%
